From patent US10770169B2, “Method of providing a treatment to a subject based on a dynamic pathway map” (THE REGENTS OF THE UNIVERSITY OF CALIFORNIA, priority 2010, dated 2020)

System: panel of 55 breast cancer cell lines
Assay: Cell growth inhibition assay (Cell Titer Glo, 72 h, 9 doses; GI50, TGI, LC50)
Assay type: cell-based, human
Conditions: value is the negative log10 of mol/L

O=C1NC(=O)/C(=C/c2ccc3nccc(-c4ccncc4)c3c2)S1 [GSK1059615B]
GI50 (cell line 600MPE, censored GI50 values): 6.31 | GI50 (cell line 600MPE): 6.31 | GI50 (cell line AU565, censored GI50 values): 6.32 | GI50 (cell line AU565): 6.32 | GI50 (cell line BT474, censored GI50 values): 6.80 | GI50 (cell line BT549, censored GI50 values): 5.73 | GI50 (cell line CAMA1, censored GI50 values): 5.77 | GI50 (cell line HCC38, censored GI50 values): 6.11 | GI50 (cell line HCC70, censored GI50 values): 6.75 | GI50 (cell line HCC202, censored GI50 values): 7.23 | GI50 (cell line HCC1143, censored GI50 values): 6.26 | GI50 (cell line HCC1187, censored GI50 values): 6.48 | GI50 (cell line HCC1395, censored GI50 values): 5.61 | GI50 (cell line HCC1419, censored GI50 values): 6.59 | GI50 (cell line HCC1428, censored GI50 values): 6.28 | GI50 (cell line HCC1500, censored GI50 values): 5.71 | GI50 (cell line HCC1806, censored GI50 values): 5.82 | GI50 (cell line HCC1937, censored GI50 values): 6.09 | GI50 (cell line HCC1954, censored GI50 values): 6.63 | GI50 (cell line HCC2185, censored GI50 values): 6.89 | GI50 (cell line HCC3153, censored GI50 values): 5.48 | GI50 (cell line LY2, censored GI50 values): 5.82 | GI50 (cell line MCF7, censored GI50 values): 5.53 | GI50 (cell line MDAMB134VI, censored GI50 values): 6.25 | GI50 (cell line MDAMB175VII, censored GI50 values): 6.18 | GI50 (cell line MDAMB231, censored GI50 values): 5.21 | GI50 (cell line MDAMB361, censored GI50 values): 5.84 | GI50 (cell line MDAMB436, censored GI50 values): 5.88 | GI50 (cell line MDAMB453, censored GI50 values): 6.52 | GI50 (cell line MDAMB468, censored GI50 values): 5.96 | GI50 (cell line SKBR3, censored GI50 values): 6.71 | GI50 (cell line SUM52PE, censored GI50 values): 6.89 | GI50 (cell line SUM149PT, censored GI50 values): 6.01 | GI50 (cell line SUM159PT, censored GI50 values): 6.73 | GI50 (cell line SUM185PE, censored GI50 values): 7.13 | GI50 (cell line SUM1315MO2, censored GI50 values): 6.49 | GI50 (cell line T47D, censored GI50 values): 6.58 | GI50 (cell line UACC812, censored GI50 values): 6.62 | GI50 (cell line UACC893, censored GI50 values): 6.89 | GI50 (cell line ZR75B, censored GI50 values): 6.51 | GI50 (cell line ZR751, censored GI50 values): 5.87 | GI50 (cell line ZR7530, censored GI50 values): 6.82

CC(=O)Nc1cccc(-n2c(=O)n(C3CC3)c(=O)c3c(Nc4ccc(I)cc4F)n(C)c(=O)c(C)c32)c1.C[S+](C)[O-] [GSK1120212B]
GI50 (600MPE cell line, censored GI50 values): 8.17 | GI50 (BT549 cell line, censored GI50 values): 5.17 | GI50 (HCC70 cell line, censored GI50 values): 8.18 | GI50 (HCC202 cell line, censored GI50 values): 10.23 | GI50 (HCC1395 cell line, censored GI50 values): 6.71 | GI50 (HCC1419 cell line, censored GI50 values): 7.23 | GI50 (HCC1806 cell line, censored GI50 values): 5.08 | GI50 (HCC1954 cell line, censored GI50 values): 6.53 | GI50 (MDAMB134VI cell line, censored GI50 values): 7.72 | GI50 (MDAMB175VII cell line, censored GI50 values): 7.94 | GI50 (MDAMB231 cell line, censored GI50 values): 6.86 | GI50 (MDAMB415 cell line, censored GI50 values): 6.13 | GI50 (MDAMB453 cell line, censored GI50 values): 6.61 | GI50 (SUM149PT cell line, censored GI50 values): 7.51 | GI50 (SUM159PT cell line, censored GI50 values): 7.93 | GI50 (SUM1315MO2 cell line, censored GI50 values): 7.19 | GI50 (cell line 600MPE): 8.17 | GI50 (cell line AU565): 4.82 | GI50 (cell line BT474): 4.78 | GI50 (cell line BT483): 4.78 | GI50 (cell line BT549): 5.17 | GI50 (cell line CAMA1): 4.78 | GI50 (cell line HCC38): 4.78 | GI50 (cell line HCC70): 8.18 | GI50 (cell line HCC202): 10.23 | GI50 (cell line HCC1187): 4.78 | GI50 (cell line HCC1395): 6.71 | GI50 (cell line HCC1419): 7.23 | GI50 (cell line HCC1428): 4.78 | GI50 (cell line HCC1500): 4.78 | GI50 (cell line HCC1806): 5.08 | GI50 (cell line HCC1937): 4.78 | GI50 (cell line HCC1954): 6.53 | GI50 (cell line HCC2185): 4.78 | GI50 (cell line HCC3153): 4.78 | GI50 (cell line LY2): 4.78 | GI50 (cell line MCF7): 4.78 | GI50 (cell line MDAMB134V): 7.72 | GI50 (cell line MDAMB157): 4.78 | GI50 (cell line MDAMB175V): 7.94 | GI50 (cell line MDAMB231): 6.86 | GI50 (cell line MDAMB361): 4.78 | GI50 (cell line MDAMB415): 6.13 | GI50 (cell line MDAMB436): 4.81 | GI50 (cell line MDAMB453): 6.61 | GI50 (cell line MDAMB468): 4.85 | GI50 (cell line SKBR3): 4.78 | GI50 (cell line SUM52PE): 5.06 | GI50 (cell line SUM149PT): 7.51 | GI50 (cell line SUM159PT): 7.93 | GI50 (cell line SUM185PE): 4.78 | GI50 (cell line SUM1315MO): 7.19 | GI50 (cell line T47D): 4.78 | GI50 (cell line UACC812): 4.78 | GI50 (cell line UACC893): 4.81 | GI50 (cell line ZR75B): 4.78 | GI50 (cell line ZR751): 4.78
